Values after ≈ are worked out from the molar mass of the structure shown.
How the values were obtained:
[1] = cited from earlier work
[2] = test system: human monocytic THP-1 cells; test: Assessment of inflammatory potential, marker expression via ELISA; format: cell-based; conditions: THP-1 cell suspension exposed to material films, LPS positive control
Protocol: For assessment of inflammatory potential, a suspension of human monocytic THP-1 cells was exposed to POC, TCP, PLGA, and ePTFE films. Afterwards, the expression of tissue factor, IL-6, and TNF-α was measured via ELISA. Addition of lipopolysaccharide (LPS) to the cells was used as a positive control.

## CC1=C(/C=C/C(C)=C/C=C/C(C)=C/C(=O)O)C(C)(C)CCC1 [ATRA, All-trans retinoic acid]
[1]; DMSO
  solubility in dimethylsulfoxide (DMSO): soluble
[1]; chloroform
  solubility in chloroform: soluble
[1]; dichloromethane
  solubility in dichloromethane: soluble
[1]; ethanol
  solubility in ethanol: 3 mg/mL (≈ 9.99 mM)
[1]; water
  solubility in water: not readily soluble

## lipopolysaccharide [LPS]
[2]
  TNF-α expression: 874 ± 531
  Tissue factor expression: 536 ± 81
